Results on two molecules are retold here after paper PMC12316285, “The porphyran degradation system is complete, phylogenetically and geographically diverse across the gut microbiota of East Asian populations” (PLOS One, 2025).

In one experiment the target is T1, BpS1_11 (Bacple_01701) (Phocaeicola plebeius, UniProt B5CYA4).
T1 construct: signal peptide removed; pET-28 or pFO4, HisTrap purified; formylglycine sulfatase (Ser83 is formylglycine in mature enzyme)
Kind of experiment: 1H NMR of products. In kind it is biochemical. To be noted: desulfation of the non-reducing-end L-galactose 6-sulfate.

The target in another experiment is T2, BpGH16C (Bacple_01703) (Phocaeicola plebeius, UniProt B5CYA6).
T2 construct: signal peptide removed; pET-28 or pFO4, HisTrap purified; three independent molecules in asymmetric unit of complex
T2 sequence (B5CYA6 entry or part of it E178L): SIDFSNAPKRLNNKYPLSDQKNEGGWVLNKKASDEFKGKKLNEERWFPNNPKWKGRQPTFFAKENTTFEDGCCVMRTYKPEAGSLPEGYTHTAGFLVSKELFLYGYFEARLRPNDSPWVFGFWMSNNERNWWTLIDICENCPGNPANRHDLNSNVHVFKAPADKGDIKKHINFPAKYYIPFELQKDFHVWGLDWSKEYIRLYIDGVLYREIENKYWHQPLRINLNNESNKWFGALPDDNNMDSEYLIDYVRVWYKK
Kind of experiment: X-ray crystal structure, […] Å, soaked crystal. In kind it is binding. The note with it: inactive mutant; soaked with tetrasaccharide, only a trisaccharide modelled (subsites -1 to -3; Figure 2 legend says disaccharide); pH 7.5.

The target in another experiment is T3, BpGH2C (Bacple_01706) (Phocaeicola plebeius, UniProt B5CYA9).
T3 construct: signal peptide removed; pET-28 or pFO4, HisTrap purified
T3 sequence (B5CYA9 1-1086): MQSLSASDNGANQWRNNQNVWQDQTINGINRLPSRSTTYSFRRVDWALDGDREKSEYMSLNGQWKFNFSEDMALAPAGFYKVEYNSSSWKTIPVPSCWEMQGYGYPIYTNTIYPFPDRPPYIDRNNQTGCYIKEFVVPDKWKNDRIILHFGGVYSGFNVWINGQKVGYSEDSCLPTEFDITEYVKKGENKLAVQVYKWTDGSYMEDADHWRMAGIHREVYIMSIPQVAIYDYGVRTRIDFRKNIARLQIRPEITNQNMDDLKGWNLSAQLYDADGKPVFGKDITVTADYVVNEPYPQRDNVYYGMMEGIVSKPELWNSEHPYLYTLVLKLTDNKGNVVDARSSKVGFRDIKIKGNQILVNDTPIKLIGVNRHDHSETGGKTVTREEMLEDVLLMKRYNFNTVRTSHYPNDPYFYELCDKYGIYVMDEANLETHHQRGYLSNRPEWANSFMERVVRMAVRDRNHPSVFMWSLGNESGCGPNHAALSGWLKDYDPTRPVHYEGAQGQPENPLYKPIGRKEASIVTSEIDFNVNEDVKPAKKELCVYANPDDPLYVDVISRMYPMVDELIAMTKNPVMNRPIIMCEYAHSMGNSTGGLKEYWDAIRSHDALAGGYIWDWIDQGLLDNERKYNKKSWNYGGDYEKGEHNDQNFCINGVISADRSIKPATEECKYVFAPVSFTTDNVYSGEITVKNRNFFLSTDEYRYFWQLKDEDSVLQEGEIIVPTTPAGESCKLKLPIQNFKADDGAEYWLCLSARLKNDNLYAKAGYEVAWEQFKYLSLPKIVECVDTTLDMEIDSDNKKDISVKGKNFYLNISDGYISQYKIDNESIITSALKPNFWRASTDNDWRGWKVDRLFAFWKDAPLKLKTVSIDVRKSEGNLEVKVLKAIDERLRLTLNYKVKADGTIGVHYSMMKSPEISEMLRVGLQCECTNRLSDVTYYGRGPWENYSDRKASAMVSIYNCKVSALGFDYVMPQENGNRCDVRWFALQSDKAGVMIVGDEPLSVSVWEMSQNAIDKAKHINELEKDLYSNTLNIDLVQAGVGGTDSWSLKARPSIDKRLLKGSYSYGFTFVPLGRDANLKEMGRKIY
Kind of experiment: 1H NMR after sequential enzyme incubation. The note with it: substrate made in situ by BpS1_[…] then BpGH29. It counts as biochemical.

The structures appear in SMILES notation.

T1 sequence (B5CYA4 entry or part of it): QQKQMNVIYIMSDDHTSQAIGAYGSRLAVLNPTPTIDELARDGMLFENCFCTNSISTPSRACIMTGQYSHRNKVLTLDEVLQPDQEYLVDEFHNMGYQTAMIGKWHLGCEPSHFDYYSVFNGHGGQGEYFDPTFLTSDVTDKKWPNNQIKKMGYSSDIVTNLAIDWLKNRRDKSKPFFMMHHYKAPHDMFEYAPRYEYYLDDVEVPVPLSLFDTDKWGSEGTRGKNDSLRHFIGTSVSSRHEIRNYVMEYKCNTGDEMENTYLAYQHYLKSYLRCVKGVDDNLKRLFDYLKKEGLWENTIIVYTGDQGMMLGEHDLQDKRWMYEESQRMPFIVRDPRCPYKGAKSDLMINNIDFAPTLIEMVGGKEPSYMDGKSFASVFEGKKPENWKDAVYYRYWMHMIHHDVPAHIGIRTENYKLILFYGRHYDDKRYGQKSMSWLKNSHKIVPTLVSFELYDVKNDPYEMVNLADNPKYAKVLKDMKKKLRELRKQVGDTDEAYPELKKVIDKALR

Regarding `O=S(=O)(O)OC[C@@H]1O[C@@H](O[C@H]2[C@@H](O)[C@@H](CO)O[C@@H](O[C@H]3[C@@H](O)[C@H](O)[C@H](O[C@H]4[C@@H](O)[C@@H](CO)OC(O)[C@@H]4O)O[C@H]3COS(=O)(=O)O)[C@@H]2O)[C@@H](O)[C@H](O)[C@@H]1O` (stereo partly drawn) [L-α-6O-sulfate-Gal-(1 → 3)-D-β-Gal-(1 → 4)-L-α-6O-sulfate-Gal-(1 → 3)-D-a/β-Gal], the “1H NMR of products” value at BpS1_11 (Bacple_01701) is “After desulfation of the tetra-saccharides”. Besides, at BpGH16C (Bacple_01703), the “X-ray crystal structure, 1.8 Å, soaked crystal” value was “we crystallized the E145L inactive mutant with the tetrasaccharide”. For the molecule `O=S(=O)(O)OC[C@@H]1O[C@@H](O[C@H]2[C@@H](O)[C@@H](CO)OC(O)[C@@H]2O)[C@@H](O)[C@H](O)[C@@H]1O[C@@H]1O[C@H](CO)[C@H](O)[C@H](O)[C@H]1O` (stereo partly drawn) [trisaccharide with non-methylated D-galactose at the non-reducing end], at BpGH2C (Bacple_01706), the “1H NMR after sequential enzyme incubation” value was “methylated or non-methylated D-galactose residue located at the non-reducing end of the trisaccharide was cleaved”.
